Read-outs that look alike come from different tables or passages of the source.
Key:
[1] = system: Scrapie (IC) infected Hamsters; type: in vivo, Syrian hamsters; conditions: for Incubation period: IC scrapie-infected hamsters, 7.5% (w/v) DMSO in drinking water, median; for Percentage of infectivity (%): relative to control
amyloidotic diseases = conditions: human, in vivo; cited from earlier work
PrP^Sc [2] = target: PrP^Sc (Mesocricetus auratus, UniProt P04273); type: in vivo, hamster; conditions: IC-inoculated, DMSO 14-end group, brain homogenate
Sequence of PrP^Sc (Mesocricetus auratus, UniProt P04273) (P04273 23-231 limits assumed): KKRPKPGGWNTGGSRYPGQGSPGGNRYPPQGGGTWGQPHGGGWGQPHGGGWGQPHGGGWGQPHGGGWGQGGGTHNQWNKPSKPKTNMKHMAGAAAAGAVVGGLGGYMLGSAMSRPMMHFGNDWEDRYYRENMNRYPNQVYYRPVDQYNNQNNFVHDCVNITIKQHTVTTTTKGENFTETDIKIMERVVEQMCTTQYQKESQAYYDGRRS

caseic amyloidosis = conditions: mouse, in vivo, po; cited from earlier work
[3] = system: Scrapie (IP) infected Hamsters; conditions: for Incubation period: IP scrapie-infected hamsters, 7.5% (w/v) DMSO in drinking water
[4] = system: scrapie-infected neuroblastoma cells (ScN2a); conditions: cited from earlier work
amyloid fibrils = conditions: cited from earlier work
Aβ peptide = target: T1, Aβ peptide (Homo sapiens, UniProt P05067); conditions: cited from earlier work
T1 construct: Aβ peptide intermediate with a high β-sheet content
T1 sequence (P05067 672-711 limits assumed): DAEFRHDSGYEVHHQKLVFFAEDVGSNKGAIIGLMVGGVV

[5] = in vivo, po; cited from earlier work
CJD patients = conditions: human, in vivo
PrP^Sc [6] = conditions: human, in vivo
[7] = in vivo; cited from earlier work

For `C[S+](C)[O-]` [DMSO, dimethyl sulfoxide], the “Incubation period” value ([1]; 0-14 dpi) was 85 days, the “Incubation period” value ([1]; 0-end dpi) was 101 days and the “Incubation period” value ([1]; 14-end dpi) was 107 days. The “Incubation period” value ([1]; 55-end dpi) was 91 days, the “effect on incubation time compared with control group” value ([1]; IC, 0-14 group) was “significant deleterious effect” and the “Infectivity (Log I.D 50)” value ([1]; IC, DMSO treatment 0-14 dpi) was 7.1 Log I.D 50. For the same molecule, the “Variance from control group [P < 0.05]” value ([1]; IC, DMSO treatment 0-14 dpi) was “+ ([+] means statistically significant difference [p < 0.05])”, the “Percentage of infectivity (%)” value ([1]; IC, DMSO treatment 0-14 dpi) was 1258% and the “Infectivity (Log I.D 50)” value ([1]; IC, DMSO treatment 0-end dpi) was 4.9 Log I.D 50. The “Variance from control group [P < 0.05]” value ([1]; IC, DMSO treatment 0-end dpi) was “+ ([+] means statistically significant difference [p < 0.05])”, the “Percentage of infectivity (%)” value ([1]; IC, DMSO treatment 0-end dpi) was 3.16% and the “Infectivity (Log I.D 50)” value ([1]; IC, DMSO treatment 14-end dpi) was 4.5 Log I.D 50. For the same molecule, the “Variance from control group [P < 0.05]” value ([1]; IC, DMSO treatment 14-end dpi) was “+ ([+] means statistically significant difference [p < 0.05])”, the “Percentage of infectivity (%)” value ([1]; IC, DMSO treatment 14-end dpi) was 3.16% and the “Infectivity (Log I.D 50)” value ([1]; IC, DMSO treatment 55-end dpi) was 6.4 Log I.D 50. For the same molecule, the “difference from control group in incubation time” value ([1]; IC, DMSO-treated from 55 dpi-end) was “no statistically significant difference”, the “incubation time for the disease compared with control group” value ([1]; IC, treatment plans 0-end or 14-end) was “statistically significant increase” and the “patients showing clinical improvement” value (amyloidotic diseases) was “about 50%”. The “urine of patients after DMSO” value (amyloidotic diseases) was “contains material that can form fibrils”, the “PrP^Sc in sample from untreated animal relative to DMSO-treated animal (band intensity)” value (PrP^Sc [2]; 90 dpi) was “about 10 times” and the “PrP in DMSO-treated animals at 90-110 dpi compared with untreated animals at 60 dpi” value (PrP^Sc [2]) was “equivalent”. The “PrP^Sc in DMSO-treated animals at 110 dpi compared with untreated animals at 90 dpi (final stages)” value (PrP^Sc [2]) was “equivalent amounts”, the “development of the disease” value (caseic amyloidosis) was “prevented the development of the disease” and the “Incubation period” value ([3]; 0 - end dpi) was 127.6 days. For the same molecule, the “Incubation period” value ([3]; 28 - end dpi) was 126.6 days, the “Incubation period” value ([3]; 55 - end dpi) was 136.8 days and the “Variance from control group [P < 0.05]” value ([3]; IP, DMSO treatment 0 - end dpi) was “+ ([+] means statistically significant difference [p < 0.05])”. For the same molecule, the “Variance from control group [P < 0.05]” value ([3]; IP, DMSO treatment 28 - end dpi) was “+ ([+] means statistically significant difference [p < 0.05])”, the “Variance from control group [P < 0.05]” value ([3]; IP, DMSO treatment 55 - end dpi) was “+ ([+] means statistically significant difference [p < 0.05])” and the “overall effect for the animals treated with DMSO” value ([3]; IP, all treatment plans of Table 2) was “overall beneficial effect”. For the same molecule, the “beneficial effect on longevity” value ([3]; IP, groups 0-end and 28-end) was “marginal”, the longevity ([3]; IP, treated only from 55 dpi onwards) was “most remarkable longevity” and the “adverse DMSO effects” value ([3]; hamsters, DMSO in drinking water) was “weight loss”. The “formation of PrP^Sc from newly synthesized PrP^C” value [4] was “interfered with the formation of PrP^Sc”, the “assembly of amyloid fibrils” value (amyloid fibrils) was “blocks the assembly of amyloid fibrils” and the “disassembly of preexisting fibrils” value (amyloid fibrils) was “does not interfere”. The “formation of Aβ peptide intermediate with a high β-sheet content” value (Aβ peptide) was “block the formation”, the “time to peak concentration” value [5] was 4 h and the “cerebellar syndrome during the treatment” value (CJD patients) was “progressed”. The “cognitive decline during the treatment” value (CJD patients) was “no further cognitive decline”, the “deterioration, medical evaluation” value (CJD patients) was “slower than expected” and the “titubation and tremor, medical evaluation” value (CJD patients) was “improvement”. The “secreted PrP^Sc in the urine” value (PrP^Sc [6]) was “continuously increasing amounts” and the side effects [7] was “no serious side effects”.

— patent US20050222275A1 (priority 2001, published 2005)
